Assay results published in the supplement of paper PMC12463676, “Small-molecule dissolution of stress granules by redox modulation benefits ALS models” (Nature Chemical Biology, 2025).

Key:
[1] = compound: NC(=O)CCCCC1CCSS1 [lipoamide]; assay: thermal stability z-score vs DMSO; higher = more thermally stabilized by treatment; details: HeLa, lipoamide concentration 100 µM
Method: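 Cellular thermal proteome profiling in HeLa cells. Cells were treated with 100 µM lipoamide for 1 h, with or without 1 mM arsenate for a further 1 h, then heated to ten temperatures (37-66.3 °C), and soluble protein was quantified by TMT mass spectrometry relative to 0.1% DMSO controls. The thermal stability score (sum of log2 fold changes minus the abundance score) was transformed to a z-score; mean of n = 3 experiments.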

[2] = compound: O=[As]([O-])(O)O.[K+] [potassium arsenate]; assay: as above; details: HeLa; arsenate concentration 1 mM
Method: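 Cellular thermal proteome profiling in HeLa cells treated with 1 mM arsenate for 1 h (DMSO pretreatment), heated to ten temperatures (37-66.3 °C). Soluble protein was quantified by TMT mass spectrometry relative to DMSO controls; the thermal stability score was transformed to a z-score; mean of n = 3 experiments.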

[3] = arsenate co-treatment: 1 mM arsenate 1 h
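Also: each temperature applied for 3 min, abundance score taken as mean log2 fold change at the two lowest temperatures, z-score obtained by mean subtraction and division by SD.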

Sequence of UniProt O00231 (O00231 whole entry): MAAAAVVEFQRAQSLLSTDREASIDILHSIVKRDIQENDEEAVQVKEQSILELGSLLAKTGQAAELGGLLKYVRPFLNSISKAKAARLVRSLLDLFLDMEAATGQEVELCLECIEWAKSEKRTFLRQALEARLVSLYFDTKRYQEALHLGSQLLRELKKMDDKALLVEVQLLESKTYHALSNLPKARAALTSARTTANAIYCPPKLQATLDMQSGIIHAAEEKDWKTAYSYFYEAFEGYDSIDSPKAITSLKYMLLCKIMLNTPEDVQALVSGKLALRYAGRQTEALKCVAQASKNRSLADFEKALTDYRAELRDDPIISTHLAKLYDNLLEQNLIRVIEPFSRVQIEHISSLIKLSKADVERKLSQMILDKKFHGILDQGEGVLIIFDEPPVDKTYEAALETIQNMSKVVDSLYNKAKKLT
Sequence of UniProt Q9NPD3 (Q9NPD3 whole entry): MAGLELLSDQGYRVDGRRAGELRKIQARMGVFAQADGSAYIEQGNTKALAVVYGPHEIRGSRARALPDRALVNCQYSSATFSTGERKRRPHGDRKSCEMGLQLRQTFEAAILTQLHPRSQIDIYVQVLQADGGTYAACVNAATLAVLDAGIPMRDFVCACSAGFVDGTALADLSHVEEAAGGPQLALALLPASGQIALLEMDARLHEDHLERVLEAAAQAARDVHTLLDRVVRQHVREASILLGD
Sequence of UniProt P17480 (P17480 whole entry): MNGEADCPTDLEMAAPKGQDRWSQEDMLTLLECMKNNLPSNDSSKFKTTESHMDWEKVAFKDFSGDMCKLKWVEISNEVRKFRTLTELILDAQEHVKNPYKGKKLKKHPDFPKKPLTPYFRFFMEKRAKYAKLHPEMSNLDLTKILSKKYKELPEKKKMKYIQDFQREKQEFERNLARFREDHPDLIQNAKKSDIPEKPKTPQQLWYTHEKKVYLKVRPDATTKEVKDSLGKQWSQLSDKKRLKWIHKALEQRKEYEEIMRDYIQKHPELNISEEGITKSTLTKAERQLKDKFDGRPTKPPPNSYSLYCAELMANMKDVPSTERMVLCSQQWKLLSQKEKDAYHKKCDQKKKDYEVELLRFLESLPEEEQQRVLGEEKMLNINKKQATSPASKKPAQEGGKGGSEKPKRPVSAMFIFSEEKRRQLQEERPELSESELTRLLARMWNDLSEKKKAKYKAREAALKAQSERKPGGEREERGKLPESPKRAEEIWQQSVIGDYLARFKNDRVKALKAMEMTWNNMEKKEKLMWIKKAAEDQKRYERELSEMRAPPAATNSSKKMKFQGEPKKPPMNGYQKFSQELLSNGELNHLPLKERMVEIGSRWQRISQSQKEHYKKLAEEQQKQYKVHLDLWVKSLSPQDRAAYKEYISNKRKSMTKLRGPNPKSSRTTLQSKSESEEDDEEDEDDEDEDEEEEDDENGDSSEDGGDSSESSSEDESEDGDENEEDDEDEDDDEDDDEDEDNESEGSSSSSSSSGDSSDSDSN
Sequence of UniProt Q53H12 (Q53H12 whole entry): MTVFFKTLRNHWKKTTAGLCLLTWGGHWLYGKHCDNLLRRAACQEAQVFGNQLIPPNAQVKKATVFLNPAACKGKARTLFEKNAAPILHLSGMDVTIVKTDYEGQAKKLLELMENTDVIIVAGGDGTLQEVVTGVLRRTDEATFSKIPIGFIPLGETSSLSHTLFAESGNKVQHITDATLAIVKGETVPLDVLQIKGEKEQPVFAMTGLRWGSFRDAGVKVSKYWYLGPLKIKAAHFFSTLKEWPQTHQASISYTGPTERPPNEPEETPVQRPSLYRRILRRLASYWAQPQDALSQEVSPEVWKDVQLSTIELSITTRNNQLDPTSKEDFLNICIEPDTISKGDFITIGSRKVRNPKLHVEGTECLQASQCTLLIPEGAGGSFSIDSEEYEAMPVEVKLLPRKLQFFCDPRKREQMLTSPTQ
Sequence of UniProt P49662 (P49662 whole entry): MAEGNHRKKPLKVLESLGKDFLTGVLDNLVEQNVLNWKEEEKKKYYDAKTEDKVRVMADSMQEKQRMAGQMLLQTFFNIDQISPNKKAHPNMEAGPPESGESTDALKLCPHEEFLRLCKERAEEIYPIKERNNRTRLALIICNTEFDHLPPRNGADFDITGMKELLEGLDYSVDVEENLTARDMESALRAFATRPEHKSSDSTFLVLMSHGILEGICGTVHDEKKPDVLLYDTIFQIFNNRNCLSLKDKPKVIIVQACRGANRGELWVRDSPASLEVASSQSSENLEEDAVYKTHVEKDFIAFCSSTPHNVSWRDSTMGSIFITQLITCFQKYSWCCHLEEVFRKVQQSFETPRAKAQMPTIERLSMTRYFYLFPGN
Sequence of UniProt Q8IXJ6 (Q8IXJ6 whole entry): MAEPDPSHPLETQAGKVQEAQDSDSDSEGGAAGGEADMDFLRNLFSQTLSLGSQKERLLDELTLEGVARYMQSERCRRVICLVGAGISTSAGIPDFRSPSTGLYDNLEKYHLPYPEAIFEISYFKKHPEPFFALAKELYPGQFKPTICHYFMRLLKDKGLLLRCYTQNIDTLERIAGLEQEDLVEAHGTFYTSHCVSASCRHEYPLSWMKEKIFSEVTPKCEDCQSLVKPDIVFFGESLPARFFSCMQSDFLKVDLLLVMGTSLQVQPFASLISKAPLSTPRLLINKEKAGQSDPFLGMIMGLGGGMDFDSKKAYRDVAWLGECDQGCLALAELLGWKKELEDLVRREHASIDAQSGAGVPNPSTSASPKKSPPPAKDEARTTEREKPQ
Sequence of UniProt O15164 (O15164 whole entry): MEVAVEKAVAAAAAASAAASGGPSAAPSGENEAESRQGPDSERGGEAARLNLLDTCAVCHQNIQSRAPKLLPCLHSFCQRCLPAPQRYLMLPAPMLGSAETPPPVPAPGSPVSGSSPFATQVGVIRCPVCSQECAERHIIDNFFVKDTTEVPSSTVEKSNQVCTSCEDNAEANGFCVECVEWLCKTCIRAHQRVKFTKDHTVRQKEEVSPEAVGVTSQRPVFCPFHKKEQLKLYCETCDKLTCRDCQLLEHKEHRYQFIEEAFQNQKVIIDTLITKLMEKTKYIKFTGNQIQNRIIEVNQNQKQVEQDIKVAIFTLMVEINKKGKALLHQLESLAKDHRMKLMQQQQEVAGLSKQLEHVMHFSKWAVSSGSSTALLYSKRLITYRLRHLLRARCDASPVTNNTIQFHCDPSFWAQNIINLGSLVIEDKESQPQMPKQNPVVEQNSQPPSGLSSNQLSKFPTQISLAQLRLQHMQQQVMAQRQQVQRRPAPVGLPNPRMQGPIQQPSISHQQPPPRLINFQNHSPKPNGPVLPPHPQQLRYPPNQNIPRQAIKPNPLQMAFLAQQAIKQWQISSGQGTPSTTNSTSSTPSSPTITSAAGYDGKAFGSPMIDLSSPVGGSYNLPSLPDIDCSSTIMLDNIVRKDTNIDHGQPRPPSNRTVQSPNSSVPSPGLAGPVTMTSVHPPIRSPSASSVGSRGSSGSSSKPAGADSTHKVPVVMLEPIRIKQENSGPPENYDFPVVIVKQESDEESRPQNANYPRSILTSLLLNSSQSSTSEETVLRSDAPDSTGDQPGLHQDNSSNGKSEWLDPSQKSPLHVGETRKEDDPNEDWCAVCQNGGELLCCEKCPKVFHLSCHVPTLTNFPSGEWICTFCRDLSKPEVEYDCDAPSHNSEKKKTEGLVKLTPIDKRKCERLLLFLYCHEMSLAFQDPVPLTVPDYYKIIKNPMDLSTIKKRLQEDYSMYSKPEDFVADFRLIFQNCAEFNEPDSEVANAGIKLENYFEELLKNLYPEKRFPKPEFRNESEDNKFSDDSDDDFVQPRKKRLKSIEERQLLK
Sequence of UniProt Q9NUP7 (Q9NUP7 whole entry): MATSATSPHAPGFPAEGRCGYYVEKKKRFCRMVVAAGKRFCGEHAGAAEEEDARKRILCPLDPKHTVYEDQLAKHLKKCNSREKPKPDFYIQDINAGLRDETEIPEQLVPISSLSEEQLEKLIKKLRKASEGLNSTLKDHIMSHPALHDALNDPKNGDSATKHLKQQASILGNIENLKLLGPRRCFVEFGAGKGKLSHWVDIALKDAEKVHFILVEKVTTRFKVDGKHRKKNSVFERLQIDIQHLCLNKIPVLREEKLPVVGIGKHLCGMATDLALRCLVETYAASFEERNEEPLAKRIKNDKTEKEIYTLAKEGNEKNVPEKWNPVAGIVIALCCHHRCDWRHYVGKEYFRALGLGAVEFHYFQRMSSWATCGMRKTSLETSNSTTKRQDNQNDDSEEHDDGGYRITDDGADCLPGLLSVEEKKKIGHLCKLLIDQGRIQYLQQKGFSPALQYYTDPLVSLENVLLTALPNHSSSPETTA
Sequence of UniProt Q9UHB4 (Q9UHB4 whole entry): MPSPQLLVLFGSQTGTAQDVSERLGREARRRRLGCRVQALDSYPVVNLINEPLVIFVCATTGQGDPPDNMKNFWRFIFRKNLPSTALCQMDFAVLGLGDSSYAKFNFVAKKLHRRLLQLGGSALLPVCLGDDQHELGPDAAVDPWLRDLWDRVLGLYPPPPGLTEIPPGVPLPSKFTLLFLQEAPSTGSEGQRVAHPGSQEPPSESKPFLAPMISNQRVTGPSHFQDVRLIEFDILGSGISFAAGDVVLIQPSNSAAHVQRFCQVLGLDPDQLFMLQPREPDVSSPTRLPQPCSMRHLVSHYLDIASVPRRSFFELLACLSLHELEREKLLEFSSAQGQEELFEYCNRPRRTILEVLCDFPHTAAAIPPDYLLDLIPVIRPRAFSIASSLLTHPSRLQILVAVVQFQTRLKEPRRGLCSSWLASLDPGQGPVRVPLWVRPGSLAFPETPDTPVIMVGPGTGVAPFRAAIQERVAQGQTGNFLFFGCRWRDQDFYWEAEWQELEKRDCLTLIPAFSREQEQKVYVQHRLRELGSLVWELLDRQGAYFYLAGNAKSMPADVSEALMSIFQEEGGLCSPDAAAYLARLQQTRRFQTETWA
Sequence of UniProt P49721 (P49721 whole entry): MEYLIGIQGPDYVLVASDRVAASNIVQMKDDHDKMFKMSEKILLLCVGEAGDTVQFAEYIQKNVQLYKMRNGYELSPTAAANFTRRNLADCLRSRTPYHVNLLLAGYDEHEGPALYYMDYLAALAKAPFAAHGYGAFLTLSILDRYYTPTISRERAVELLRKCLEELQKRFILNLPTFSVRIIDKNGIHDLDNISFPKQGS

Row | Target | thermal stability z-score [1, 3] | thermal stability z-score ([1]; arsenate co-treatment: none) | thermal stability z-score [2]
1 | AGFG2 (UniProt O95081) | -0.423 | -0.0283 | -0.791
2 | PRKCSH (UniProt P14314) | -2.77 | -2.47 | 0.768
3 | TRIM24 (UniProt O15164) | 0.0835 | 0.184 | -0.334
4 | LNPEP (UniProt Q9UIQ6) | 0.328 | 0.227 | 0.249
5 | WTAP (UniProt Q15007) | 0.0767 | 0.0181 | -0.059
6 | EXOSC4 (UniProt Q9NPD3) | 0.821 | -0.104 | -0.872
7 | PLPP1 (UniProt O14494) | -0.53 | 0.262 | 0.324
8 | OPLAH (UniProt O14841) | -0.0343 | 0.0614 | -0.0405
9 | UBTF (UniProt P17480) | 0.142 | 0.184 | 0.532
10 | SNAP23 (UniProt O00161) | 0.994 | 1.06 | -0.16
11 | AGK (UniProt Q53H12) | 0.541 | 0.38 | 0.573
12 | SLC39A7 (UniProt Q92504) | -1.65 | -0.943 | -0.00591
13 | CPNE3 (UniProt O75131) | 1.73 | 2.22 | 0.283
14 | RAP2B (UniProt P61225) | 0.92 | 0.134 | -0.0313
15 | ASAP2 (UniProt O43150) | -0.641 | -0.527 | -0.394
16 | SIN3A (UniProt Q96ST3) | -0.000782 | 0.0569 | -0.303
17 | C15ORF40 (UniProt Q8WUR7) | 0.334 | -0.344 | -1.19
18 | WDHD1 (UniProt O75717) | 1.28 | 1.01 | -0.982
19 | BAIAP2L1 (UniProt Q9UHR4) | 0.0217 | -0.166 | 0.177
20 | RAB20 (UniProt Q9NX57) | -0.495 | -0.609 | -0.306
21 | SLC27A2 (UniProt O14975) | -0.257 | -0.484 | 0.45
22 | PPAN (UniProt Q9NQ55) | 0.703 | -0.582 | -0.33
23 | EZR (UniProt P15311) | 1.01 | 0.661 | -0.481
24 | PSMB2 (UniProt P49721) | 1.49 | 1.31 | 1.08
25 | PPIL3 (UniProt Q9H2H8) | -0.0679 | 0.0318 | -0.32
26 | NSMCE4A (UniProt Q9NXX6) | -0.245 | -0.35 | -0.055
27 | TRMT13 (UniProt Q9NUP7) | -0.376 | -1.34 | 0.263
28 | HTT (UniProt P42858) | 0.301 | -0.0612 | 0.319

Row | Target | thermal stability z-score [1, 3] | thermal stability z-score ([1]; arsenate co-treatment: none) | thermal stability z-score [2]
29 | DCP2 (UniProt Q8IU60) | -0.0416 | 0.195 | -0.203
30 | ATP2B4 (UniProt P23634) | -0.147 | -0.0358 | -1.05
31 | PRPF40A (UniProt O75400) | -0.0187 | 0.00497 | 0.00775
32 | COG3 (UniProt Q96JB2) | 1.88 | 2.29 | 2.95
33 | SSB (UniProt P05455) | -0.542 | 0.233 | 0.363
34 | PSMD11 (UniProt O00231) | -0.641 | -0.384 | -0.694
35 | RMDN3 (UniProt Q96TC7) | -0.522 | -0.501 | 0.289
36 | SIRT2 (UniProt Q8IXJ6) | 0.594 | 0.653 | -0.31
37 | ZNF609 (UniProt O15014) | 0.0184 | -0.0967 | -0.0848
38 | PLOD1 (UniProt Q02809) | -4.26 | -3.77 | 1.2
39 | FANCG (UniProt O15287) | -0.348 | -0.437 | -0.507
40 | HN1L | 0.978 | 0.827 | 0.214
41 | MRPS16 (UniProt Q9Y3D3) | -0.314 | -0.201 | 0.0354
42 | CASP4 (UniProt P49662) | 0.133 | 0.419 | 0.496
43 | CHTF8 (UniProt P0CG13) | 1.3 | 0.577 | 0.975
44 | ARMC1 (UniProt Q9NVT9) | 0.616 | 0.111 | 0.476
45 | AAGAB (UniProt Q6PD74) | 0.334 | 0.843 | 2.05
46 | PDPR (UniProt Q8NCN5) | 0.399 | 0.429 | -0.181
47 | NDUFS6 (UniProt O75380) | -0.253 | 0.123 | -0.244
48 | UHRF1BP1 (UniProt Q6BDS2) | -0.235 | 0.193 | 0.149
49 | GPATCH4 (UniProt Q5T3I0) | 1.04 | 0.36 | 0.695
50 | IQGAP2 (UniProt Q13576) | -0.121 | -0.159 | -0.209
51 | TOB1 (UniProt P50616) | -1.37 | -0.305 | 0.159
52 | ZNF346 (UniProt Q9UL40) | -0.17 | 0.0809 | 0.04
53 | CYP2S1 (UniProt Q96SQ9) | -1.14 | -0.765 | -0.647
54 | NDOR1 (UniProt Q9UHB4) | 0.000709 | 0.487 | 1.08
55 | BZW2 (UniProt Q9Y6E2) | 0.428 | 0.313 | -0.183
